Reference: patent US20030232114A1, “Method for liquid enrichment with oxygen and applications of enriched liquids” (priority 2002, published 2003)

System: rats having a myocardial infarction due to a restriction of the coronaries
Test: Oxygen consumption in damaged tissues of rats with myocardial infarction (acute occlusion of blood vessels)
Format: in vivo
Conditions: conventional oxygen treatment by inhalation by means of a cannula, monitored for five days
Procedure: The oxygen enriched solutions of the invention were tested on experimental animals subjected to an acute occlusion of blood vessels which provoked degenerative changes of the interested tissues.
An oxygen enriched physiological solution of 0.3 cc having an oxygen partial pressure of 2 bar was intravenously administered at a rate of 1 g/min twice a days to a first group of 5 rats having a myocardial infarction due to a restriction of the coronaries. A second group of rats with the same disease, was subjected to a conventional oxygen treatment by inhalation by means of a cannula.
The results of the treatment were monitored and scheduled for five days. The first group of animals, treated by administering a solution in accordance with an embodiment of the present invention consumed 20% of oxygen in the damaged tissues whereas the second group which received the oxygen by inhalation consumed only 5% of oxygen in the damaged tissues.

O=O [oxygen]
oxygen consumed in the damaged tissues: 5%
